The source of these data is patent US9969887B2, “Merocyanine-based compounds, and dyes, kits and contrast medium compositions for labelling biomolecules comprising the same” (SFC CO., LTD., priority 2016, dated 2018).

Data set [1] can be described thus: Absorption and emission spectra, molar extinction coefficient and quantum efficiency in solvent. Type of data set: physicochemical. The procedure: Absorption spectra (λabs), emission spectra (λem), molar extinction coefficient (ε) and quantum efficiency of compounds 1 to 8 obtained in Preparation Examples 1 to 4, and commercially available SYBR® safe were measured and shown in Table 1 below.
Absorption spectra (λabs), emission spectra (λem), molar extinction coefficient (ε) and quantum efficiency of Compounds 36 to 39 obtained in Preparation Examples 6 and 7 and commercially available SYBR® safe were measured and shown in Table 2 below.

The test system of another data set is DNA. The data set is described as follows: Absorption and emission spectra and quantum efficiency in the presence of DNA. The data set is classed as physicochemical. As to the method: Absorption spectra (λabs), emission spectra (λem) and quantum efficiency measured in the presence of DNA with compounds 1 to 8 and 36 to 39, and commercially available SYBR® safe were measured and are shown in Table 3 below.

Data set [2] can be described thus: Thermal stability test, absorbance on standing at 95° C. in PCR reaction buffer. Type of data set: physicochemical. As to the method: In order to confirm the stability of the fluorescent dye in the PCR reaction, 20 μL of PCR reaction buffer containing 1 μL of Compound 38 and 1 μL of EvaGreen™ (Biotium), respectively, was prepared. Each PCR reaction buffer was heated to 95° C., and the absorbance which varies with the standing time at 95° C. was measured.

Data set [3] has as its system Salmonella typhimurium TA98 strain. The data set is described as follows: Ames test with S9 mixture. Conditions: 40 μg/plate, TA98, S9 mixture. In general terms: The Ames test uses bacterial strains that need an amino acid and regain growth without it when mutated back.

Consider `O=C(CCCCCN1C=CC2=C3c4sc5ccccc5[n+]4CCC3Oc3cccc1c32)NCCOCCNC(=O)CCCCCN1C=CC2=C3c4sc5ccccc5[n+]4CCC3Oc3cccc1c32` (centres unmarked) [Compound 1], for which, in data set [1] (DMSO), the Quantum efficiency is on record as 0.52, the “ε (molar extinction coefficient)” value is on record as 109,000 M^−1cm^−1, the λabs is recorded as 517 nm and the λem is 567 nm. In data set [1] (buffer), the Quantum efficiency is 0.03, the “ε (molar extinction coefficient)” value was 92,000 M^−1cm^−1, the λabs came to 484 nm and the λem amounted to 568 nm. Besides, in the data set with DNA, the Quantum efficiency is listed as 1.00, the λabs was 517 nm and the λem was found to be 541 nm.

In the case of `O=C(CCCCCN1C=CC2=C3c4sc5ccccc5[n+]4CCC3Oc3cccc1c32)NCCCOCCOCCOCCCNC(=O)CCCCCN1C=CC2=C3c4sc5ccccc5[n+]4CCC3Oc3cccc1c32` (centres unmarked) [Compound 2], in data set [1] (DMSO), the Quantum efficiency is recorded as 0.88, the “ε (molar extinction coefficient)” value is given as 101,000 M^−1cm^−1, the λabs stood at 517 nm and the λem is on record as 566 nm. For the same molecule, in data set [1] (buffer), the Quantum efficiency was 0.08, the “ε (molar extinction coefficient)” value is on record as 83,000 M^−1cm^−1, the λabs is 484 nm and the λem was found to be 565 nm. For the same molecule, in the data set with DNA, the Quantum efficiency came out at 0.93, the λabs is reported as 517 nm and the λem is 541 nm.

Turning to `O=C(CCCCCN1C=CC2=C3c4sc5ccccc5[n+]4CCC3Oc3cccc1c32)NCCOCCOCCNC(=O)CCCCCN1C=CC2=C3c4sc5ccccc5[n+]4CCC3Oc3cccc1c32` (centres unmarked) [Compound 3], in data set [1] (DMSO), the Quantum efficiency worked out at 0.55, the “ε (molar extinction coefficient)” value is given as 84,000 M^−1cm^−1, the λabs came to 517 nm and the λem is recorded as 565 nm. For the same molecule, in data set [1] (buffer), the Quantum efficiency is 0.03, the “ε (molar extinction coefficient)” value is listed as 66,000 M^−1cm^−1, the λabs is given as 484 nm and the λem is 564 nm. Further, in the data set on DNA, the Quantum efficiency is listed as 0.86, the λabs was determined as 517 nm and the λem is listed as 540 nm.

For the molecule `O=C(CCCCCN1C=CC2=C3c4sc5ccccc5[n+]4CCC3Oc3cccc1c32)NCCOCCOCCOCCNC(=O)CCCCCN1C=CC2=C3c4sc5ccccc5[n+]4CCC3Oc3cccc1c32` (centres unmarked) [Compound 4], in data set [1] (DMSO), the Quantum efficiency was 0.73, the “ε (molar extinction coefficient)” value was 95,000 M^−1cm^−1, the λabs amounted to 517 nm and the λem was 565 nm. In data set [1] (buffer), the Quantum efficiency stood at 0.03, the “ε (molar extinction coefficient)” value is given as 85,000 M^−1cm^−1, the λabs came out at 484 nm and the λem came out at 566 nm. Besides, in the data set with DNA, the Quantum efficiency was 0.88, the λabs turned out to be 517 nm and the λem is 539 nm.

For the molecule `O=C(CCCCCN1C=CC2=C3c4sc5ccc(Cl)cc5[n+]4CCC3Oc3cccc1c32)NCCOCCNC(=O)CCCCCN1C=CC2=C3c4sc5ccc(Cl)cc5[n+]4CCC3Oc3cccc1c32` (centres unmarked) [Compound 5], in data set [1] (DMSO), the Quantum efficiency was determined as 0.64, the “ε (molar extinction coefficient)” value is reported as 73,000 M^−1cm^−1, the λabs came to 517 nm and the λem came to 564 nm. In addition, in data set [1] (buffer), the Quantum efficiency is 0.05, the “ε (molar extinction coefficient)” value is listed as 60,000 M^−1cm^−1, the λabs is reported as 484 nm and the λem came out at 562 nm. In the data set on DNA, the Quantum efficiency came to 0.86, the λabs amounted to 517 nm and the λem was 537 nm.

Take `O=C(CCCCCN1C=CC2=C3c4sc5ccc(Cl)cc5[n+]4CCC3Oc3cccc1c32)NCCOCCOCCOCCNC(=O)CCCCCN1C=CC2=C3c4sc5ccc(Cl)cc5[n+]4CCC3Oc3cccc1c32` (centres unmarked) [Compound 7]: in data set [1] (DMSO), the Quantum efficiency is 0.64, the “ε (molar extinction coefficient)” value is reported as 83,000 M^−1cm^−1, the λabs was 517 nm and the λem is recorded as 563 nm. Besides, in data set [1] (buffer), the Quantum efficiency was found to be 0.06, the “ε (molar extinction coefficient)” value is recorded as 75,000 M^−1cm^−1, the λabs is 484 nm and the λem worked out at 560 nm. In the data set with DNA, the Quantum efficiency was found to be 0.71, the λabs is reported as 517 nm and the λem is given as 538 nm.

For `O=C(CCCCCN1C=CC2=C3c4sc5ccc(Cl)cc5[n+]4CCC3Oc3cccc1c32)NCCCOCCOCCOCCCNC(=O)CCCCCN1C=CC2=C3c4sc5ccc(Cl)cc5[n+]4CCC3Oc3cccc1c32` (centres unmarked) [Compound 8], in data set [1] (DMSO), the Quantum efficiency was found to be 0.71, the “ε (molar extinction coefficient)” value is reported as 89,000 M^−1cm^−1, the λabs turned out to be 517 nm and the λem amounted to 563 nm. Moreover, in data set [1] (buffer), the Quantum efficiency was 0.04, the “ε (molar extinction coefficient)” value is reported as 78,000 M^−1cm^−1, the λabs is 484 nm and the λem is 565 nm. Further, in the data set with DNA, the Quantum efficiency turned out to be 0.80, the λabs is given as 517 nm and the λem is 538 nm.

`O=C(CCCCCN1C=CC2=C3c4oc5ccccc5[n+]4CCC3Oc3cccc1c32)NCCOCCNC(=O)CCCCCN1C=CC2=C3c4oc5ccccc5[n+]4CCC3Oc3cccc1c32` (centres unmarked) [Compound 36]: in data set [1] (DMSO), the Quantum efficiency was 0.65, the “ε (molar extinction coefficient)” value was 95,000 M^−1cm^−1, the λabs is reported as 492 nm and the λem is recorded as 520 nm. Further, in data set [1] (buffer), the Quantum efficiency turned out to be 0.12, the “ε (molar extinction coefficient)” value was 83,000 M^−1cm^−1, the λabs came to 458 nm and the λem amounted to 526 nm. In the data set on DNA, the Quantum efficiency is reported as 0.67, the λabs amounted to 492 nm and the λem is 511 nm.

Turning to `O=C(CCCCCN1C=CC2=C3c4oc5ccccc5[n+]4CCC3Oc3cccc1c32)NCCOCCOCCNC(=O)CCCCCN1C=CC2=C3c4oc5ccccc5[n+]4CCC3Oc3cccc1c32` (centres unmarked) [Compound 37], in data set [1] (DMSO), the Quantum efficiency is listed as 0.63, the “ε (molar extinction coefficient)” value was 100,000 M^−1cm^−1, the λabs came to 492 nm and the λem was determined as 520 nm. In addition, in data set [1] (buffer), the Quantum efficiency was 0.14, the “ε (molar extinction coefficient)” value is reported as 85,000 M^−1cm^−1, the λabs is on record as 458 nm and the λem amounted to 524 nm. Further, in the data set on DNA, the Quantum efficiency is listed as 0.64, the λabs turned out to be 492 nm and the λem stood at 512 nm.

Consider `O=C(CCCCCN1C=CC2=C3c4oc5ccccc5[n+]4CCC3Oc3cccc1c32)NCCOCCOCCOCCNC(=O)CCCCCN1C=CC2=C3c4oc5ccccc5[n+]4CCC3Oc3cccc1c32` (centres unmarked) [Compound 38], for which the results for the Quantum efficiency (in data set [1] (DMSO); in data set [1] (buffer); in the data set with DNA) were 0.67, 0.17 and 0.76, respectively. Moreover, the “ε (molar extinction coefficient)” value in data set [1] (DMSO) is given as 110,000 M^−1cm^−1; in data set [1] (buffer) it was 95,000 M^−1cm^−1. Besides, the λabs in data set [1] (DMSO) is on record as 492 nm; in data set [1] (buffer), 459 nm; in the data set on DNA, 492 nm. In addition, the λem came to 520 nm in data set [1] (DMSO), 522 nm in data set [1] (buffer) and 512 nm with DNA. In data set [2] (95° C., compared with EvaGreen), the high temperature stability entry is “greater than EvaGreen™”. Besides, the Absorbance in data set [2] (standing time 0 hr at 95° C.) is given as 0.127; in data set [2] (standing time 0.5 hr at 95° C.) it was 0.149; in data set [2] (standing time 1 hr at 95° C.), 0.162; in data set [2] (standing time 2 hr at 95° C.), 0.163; in data set [2] (standing time 3 hr at 95° C.), 0.178.

As for `O=C(CCCCCN1C=CC2=C3c4oc5ccccc5[n+]4CCC3Oc3cccc1c32)NCCCOCCOCCOCCCNC(=O)CCCCCN1C=CC2=C3c4oc5ccccc5[n+]4CCC3Oc3cccc1c32` (centres unmarked) [Compound 39], in data set [1] (DMSO), the Quantum efficiency was determined as 0.70, the “ε (molar extinction coefficient)” value is 116,000 M^−1cm^−1, the λabs was 492 nm and the λem stood at 520 nm. Moreover, in data set [1] (buffer), the Quantum efficiency stood at 0.15, the “ε (molar extinction coefficient)” value is given as 98,000 M^−1cm^−1, the λabs turned out to be 459 nm and the λem amounted to 523 nm. Moreover, in the data set on DNA, the Quantum efficiency came out at 0.70, the λabs was 492 nm and the λem is 513 nm.

As for `CC[n+]1c(-c2ccccc2)c2cc(N)ccc2c2ccc(N)cc21.[Br-]` [EtBr, ethidium bromide, reference compound], in data set [3], the “Number of colonies per plate” value is on record as 3051 ± 181.
